# Experimental data: PubChem BioAssay AID1959 (Broad Institute, 2009)
# Activity calls are given as the source filed them.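 The calls were made as follows: active = growth-inhibition EC50 no more than tenfold above the top tested dose; inconclusive = flat fit between 30% and 70% inhibition, or unreliable fit; inactive = EC50 more than tenfold above the top tested dose.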
# System: E. coli NEB5alpha growth, BacTiter-Glo luminescence, 4 h
# Assay: antibacterial activity against E. coli NEB5alpha – luminescence, counter-screen for MEX-5/POS-1 RNA-binding inhibitor project, dose response (AID 1959);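 also: pUC19-transformed ampicillin-resistant cells grown in LB with ampicillin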
row,Structure (SMILES),EC50
1,CCc1ccc(/C=C2\Oc3c(ccc(O)c3CN3CCN(CCO)CC3)C2=O)cc1,> 11 µM (inactive)
2,CN1C(=O)C(=Cc2ccc(Sc3ccccc3)o2)C(=O)N(C)C1=S,> 11 µM (inactive)
3,CCOc1cc(C2C(C#N)=C(N)OC3=C2C(=O)CC(C)(C)C3)cc([N+](=O)[O-])c1O (centres undefined),> 11 µM (inactive)
4,O=C(O)CC(C(=O)O)N1C(=O)/C(=C/C=C/c2ccco2)SC1=S (centres undefined),> 11 µM (inactive)
5,COc1cc(/C=C2\CCc3c2nc2ccccc2c3C(=O)O)cc(OC)c1OC,> 11 µM (inactive)
6,Cc1cc(C(=O)O)ccc1-n1c(C)cc(/C=C2\SC(=O)NC2=O)c1C,> 11 µM (inactive)
7,Cc1ccc(NC(=O)CCS(=O)(=O)c2cc3c(cc2Cl)NC(=O)CO3)cc1,> 11 µM (inactive)
8,OC(C#Cc1ccccn1)c1cccs1 (centres undefined),> 11 µM (inactive)
9,N=c1c(C(=O)NC2CCCCC2)cc2c(=O)n3ccccc3nc2n1Cc1cccnc1,> 11 µM (inactive)
10,O=C1N=C(N2C=CC(=C3C=CNC=C3)C=C2)/C(=C/N=NC(=O)c2ccccc2O)S1,> 11 µM (inactive)
11,COc1cc(C2C(C#N)=C(N)OC3=C2C(=O)CC(C)(C)C3)ccc1OCCN1CCOCC1 (centres undefined),> 11 µM (inactive)
12,O=C(O)CCNc1ccc(NCCC(=O)O)c2c1C(=O)c1ccccc1C2=O,> 11 µM (inactive)
13,CCOc1cc(N2CCOCC2)c(OCC)cc1NC(C)C(=O)N1CCN(CC)CC1 (centres undefined),> 11 µM (inactive)
14,Fc1ccc(C2=CC(c3ccco3)n3ncnc3N2)cc1 (centres undefined),> 11 µM (inactive)
15,Cc1cc2oc(=O)c(CC(=O)NCCCO)c(C)c2c2occ(C(C)(C)C)c12,> 11 µM (inactive)
16,O=C(c1ccco1)[C@@H]1[C@@H]2C(=O)N(c3ccccc3)C(=O)[C@@H]2C2c3ccccc3C=CN21 (some centres undefined),> 11 µM (inactive)
17,COC(=O)CCC(=O)OC1(C)C(=O)C=C2C=C(C3CC3)N(c3ccc(CO)cc3)C=C2C1=O (centres undefined),> 11 µM (inactive)
18,CCN(CC)c1ccc(/C=N/NC(=O)c2ccco2)c(O)c1,> 11 µM (inactive)
19,Cc1nc2ccc(N3CCN(C)CC3)cc2nc1C,> 11 µM (inactive)
20,CCOC(=O)c1c(-n2c(C)cc(/C=C3/C(=O)NC(=O)N(CC)C3=O)c2C)sc2c1CCCC2,> 11 µM (inactive)
21,CCOC(=O)C1Nc2ccc(C)cc2C2C=CCC12 (centres undefined),> 11 µM (inactive)
22,CCOC(=O)/C=c1\s/c(=C\c2ccc(C#N)cc2)c(=O)n1CC(=O)NCc1ccco1,> 11 µM (inactive)
23,O=Cc1c(-c2ccccc2)nc2ccccn12,> 11 µM (inactive)
24,COc1ccccc1NC(=O)c1sc2nc(Cc3ccccc3)cc(C(F)(F)F)c2c1N,> 11 µM (inactive)

row,Structure (SMILES),EC50
1,CC1(C)CC(=O)C2=C(C1)OC(N)=C(C#N)C21C(=O)N(CN2CCOCC2)c2ccccc21 (centres undefined),> 11 µM (inactive)
2,C[C@H]1c2cccc(O)c2C(O)=C2C(=O)[C@]3(O)C(O)=C(C(N)=O)C(=O)[C@@H](N(C)C)C3[C@@H](O)C21 (some centres undefined),4.58 µM
3,CCC(C)/C=C(C)/C=C/C1=CC2=C(Cl)C(=O)C(C)(OC(C)=O)C(=O)C2=CO1 (centres undefined),> 11 µM (inactive)
4,Cc1ccc(S(=O)(=O)N(CCCN2CCCC2=O)Cc2cc3c(C)ccc(C)c3[nH]c2=O)cc1,> 11 µM (inactive)
5,O=c1[nH]c(/C=C\c2ccc(O)c(O)c2)nc(O)c1[N+](=O)[O-],> 11 µM (inactive)
6,O=C(NC(=S)NNS(=O)(=O)c1ccccc1)c1cccnc1,> 11 µM (inactive)
7,Cc1ccccc1NC(=O)/C(C#N)=C/c1ccc(-c2ccc(Cl)c(C(=O)O)c2)o1,> 11 µM (inactive)
8,N#Cc1ccccc1CN1C(=O)S/C(=C/c2cccn2-c2cccc(C(=O)O)c2)C1=O,> 11 µM (inactive)
9,NC(N)=NS(=O)(=O)c1ccc(NC(=S)NC(=O)/C=C/c2cccs2)cc1,> 11 µM (inactive)
10,S=C1NC2(CCS1)Oc1ccccc1C1CC(c3ccccc3)=NN12 (centres undefined),> 11 µM (inactive)
11,CN(C)CCCN1C(=O)c2cccc3c(Br)ccc(c23)C1=O,> 11 µM (inactive)
12,Cc1ccc(/C=C2/Sc3ccc(C(=O)N4CCN(c5ccccn5)CC4)cc3NC2=O)cc1,> 11 µM (inactive)
13,NC(=O)c1ccsc1N,> 11 µM (inactive)
14,O=C1N=C(N2CCCCC2)S/C1=C/C1=Cc2ccccc2OC1,> 11 µM (inactive)
15,Cn1ncc(Cl)c1C(=O)N/N=C/c1cccc(OC2CSC2)c1,> 11 µM (inactive)
16,CC(=O)Nc1ccc(N=Cc2nc(-c3ccc(C)cc3)oc2O)cc1,> 11 µM (inactive)
17,CC1=NN(C(N)=S)C(=O)C1N=Nc1cccc(C(=O)O)c1 (centres undefined),> 11 µM (inactive)
18,Cc1ccc(N=Cc2sc(O)c3ccccc23)c(C)c1,> 11 µM (inactive)
19,CC1=NN(c2cccc(C(=O)O)c2)C(=O)/C1=C\C=C\c1ccco1,> 11 µM (inactive)
20,COCC1CCN(C(=O)CC2C(=O)NCCN2Cc2cccc(Oc3ccccc3)c2)CC1 (centres undefined),> 11 µM (inactive)
21,COC/C=C/C1=CC2=CC(=O)C(C)(OC(=O)c3cccs3)C(=O)C2=CO1 (centres undefined),> 11 µM (inactive)
22,COc1cc(C2C(C#N)=C(N)OC3=C2C(=O)CCC3)c([N+](=O)[O-])cc1OC (centres undefined),> 11 µM (inactive)
23,CCOC(=O)c1cc(-c2ccccc2)sc1NC(=S)Nc1cc(C)ccn1,> 11 µM (inactive)
24,CCOC(=O)N1CCN(C(=O)c2ccc3c(c2)NC(=O)/C(=C\c2ccc(OC)c(OC)c2)S3)CC1,> 11 µM (inactive)

row,Structure (SMILES),EC50
1,COc1ccc(N2C(=O)NC(=O)/C(=C/c3ccc4c(c3)Cc3ccccc3-4)C2=O)cc1,> 11 µM (inactive)
2,Cc1[nH][nH]c(=O)c1C(c1cc([N+](=O)[O-])ccc1O)c1c(C)[nH][nH]c1=O,> 11 µM (inactive)
3,CC1(OC(=O)c2ccc(Cl)nc2)C(=O)C=C2C=C(C3CC3)OC=C2C1=O (centres undefined),> 11 µM (inactive)
4,S=c1[nH]c2ccccc2n2c(=S)[nH]nc12,> 11 µM (inactive)
5,Cc1ccc(C2C(C(=O)c3ccco3)=C(O)C(=O)N2c2nnc(C)s2)cc1 (centres undefined),> 11 µM (inactive)
6,O=C(Nc1nccs1)c1ccc(-c2ccc([N+](=O)[O-])cc2)o1,> 11 µM (inactive)
7,COc1ccc(OC)c(-n2c(O)c(/C=C3\C=Nc4ccccc43)c(=O)[nH]c2=O)c1,> 11 µM (inactive)
8,COc1ccc(/C=C2\N=C(C)OC2=O)cc1OC,> 11 µM (inactive)
9,CC(=O)Nc1ccc(S(=O)(=O)NNC(=O)C(=O)NNc2ccccn2)cc1,> 11 µM (inactive)
10,O=C(O)c1ccc2c3c(ncnc13)-c1ccccc1C2=O,> 11 µM (inactive)
11,C=CCN1C(=O)NC(=O)/C(=C/c2c(CCN(C)C(=O)c3ccccc3)cc3c(c2OC)OCO3)C1=O,> 11 µM (inactive)
12,CCOc1ccc2c(c1)/C(=C(\C(Cl)=C(Cl)Cl)[N+](=O)[O-])N2,> 11 µM (inactive)
13,CCC(C)[C@@H](N)C(=O)N/N=C/c1cccc2nccnc12 (some centres undefined),> 11 µM (inactive)
14,Cc1ccc(C)n1-c1ccc(C(=O)O)cc1,> 11 µM (inactive)
15,COC(=O)Cn1cc(C=C2C(=O)NC(=O)NC2=O)c2ccccc21,> 11 µM (inactive)
16,Cc1cc(=O)n2[nH]c(=O)c(N=Nc3ccccc3)c2[nH]1,> 11 µM (inactive)
17,CCOC(=O)c1ccc(CC(=O)c2ccc(O)c(O)c2O)o1,> 11 µM (inactive)
18,O=c1[nH]c(=O)n(Cc2ccccc2)c(O)c1C=Nc1ccc(CN2CCOCC2)cc1,> 11 µM (inactive)
19,N#Cc1ccccc1CN1C(=O)S/C(=C/c2cccn2-c2ccc(C(=O)O)cc2)C1=O,> 11 µM (inactive)
20,Cc1nc2c3ccccc3nc(NNC(=O)CCC(=O)N3CCCC(C)C3)n2n1 (centres undefined),> 11 µM (inactive)
21,C=CCN=c1scc(-c2ccco2)n1/N=C/c1ccc(O)c(O)c1O,> 11 µM (inactive)
22,COc1ccc(C2=CC3=CC(=O)C(C)(O)C(=O)C3=CO2)cc1 (centres undefined),> 11 µM (inactive)
23,CCCN1CCCc2cc(CN)ccc21,> 11 µM (inactive)
24,O=C(NCCCN1CCOCC1)C1Nc2ccc(OC(F)(F)F)cc2C2C=CCC12 (centres undefined),> 11 µM (inactive)

row,Structure (SMILES),EC50
1,O=[N+]([O-])c1cc(-c2ccc(/C=N/n3cnnc3)o2)ccc1Cl,> 11 µM (inactive)
2,Nc1ccc2c(c1)C/C(=C/c1ccco1)C2=O,> 11 µM (inactive)
3,COCCn1c(N)c(NCc2ccccc2)c(=O)[nH]c1=O,> 11 µM (inactive)
4,CCOc1ccc(-n2c(O)c(/C=C3\C=Nc4ccccc43)c(=O)[nH]c2=O)cc1,> 11 µM (inactive)
5,Cc1ccc(S(=O)(=O)CCSc2nc(C)cc(C(F)(F)F)c2C#N)cc1,> 11 µM (inactive)
6,CC(=NCCN1CCCCC1)c1c(O)n(-c2ccc(Cl)cc2)c(=O)[nH]c1=O,> 11 µM (inactive)
7,Cc1nc(S/C(=C/c2ccc(OCc3ccc(C(=O)O)cc3)cc2)C(=O)O)n[nH]1,> 11 µM (inactive)
8,Cc1sc(-c2ccccn2)nc1OC(=O)c1cccc(Cl)c1Cl,> 11 µM (inactive)
9,CSc1nnc(SCc2nc3sc(C(=O)O)c(C)c3c(=O)[nH]2)s1,> 11 µM (inactive)
10,CCOC(=O)C1Nc2ccc(Br)cc2C2C=CCC12 (centres undefined),> 11 µM (inactive)
11,O=C1C=C(O)c2c(O)cc(O)c(O)c2C1=O,> 11 µM (inactive)
12,Cc1cc(/C=c2/sc3nc4ccccc4n3c2=O)c(C)n1-c1ccccn1,> 11 µM (inactive)
13,O=c1/c(=C\c2ccc(O)cc2)sc2nc(-c3ccccc3)c(-c3ccccc3)n12,> 11 µM (inactive)
14,NC(=S)N=Nc1ccc(NN=C(N)N)cc1,> 11 µM (inactive)
15,CC1=CC(C)(C)N2C(=O)C3(C(C#N)=C(N)OC4=C3C(=O)CC(C)(C)C4)c3c(C)c(C)cc1c32 (centres undefined),> 11 µM (inactive)
16,Cn1c(N=Nc2ccc(N3CCOCC3)cc2)[n+](C)c2ccccc21,> 11 µM (inactive)
17,CC1(OC(=O)c2cccs2)C(=O)C=C2C=C3CCCN3C=C2C1=O (centres undefined),> 11 µM (inactive)
18,CCCNS(=O)(=O)c1ccc(CCC(=O)NCc2ccc3c(c2)OCO3)cc1,> 11 µM (inactive)
19,N=c1c(C(=O)NC2CCCC2)cc2c(=O)n3ccccc3nc2n1Cc1ccccc1,> 11 µM (inactive)
20,COc1ccc(-n2c(NNC(C)=O)nc3sc4c(c3c2=O)CCCC4)cc1,> 11 µM (inactive)
21,CC1=NN(c2ccc(C(=O)O)c(N)c2)C(=O)C1,> 11 µM (inactive)
22,COC(=O)c1cccc(-n2c(C)cc(C=O)c2C)c1C,> 11 µM (inactive)
